We go through three substances from article PMC11555673, “Modulators of the Hop-HSP90 Protein–Protein Interaction Disrupt KSHV Lytic Replication” (ACS Infectious Diseases, 2024).

For data set [1], the system named is KSHV-infected TREx-BCBL-1-RTA cells.
Data set [2] deals with KSHV ORF57.
Data set [3] deals with CDK4. As to the kind of experiment: Western blot of HSP90 client CDK4 in reactivated TREx-BCBL-1-RTA cells. It counts as cell-based. Particulars: Figures 7C and S4. As for the experimental part: The remaining TREx-BCBL-1-RTA cells (after cell viability assay) were harvested and washed twice with ice-cold PBS (pH 7.4). […] Bicinchoninic acid (BCA) protein quantification assay was used to determine the concentration of protein in the lysates. An equal amount of protein samples was denatured in Laemmli SDS loading buffer at 95 °C for 5 min. An equal volume of the denatured protein samples was resolved by SDS-PAGE and transferred to nitrocellulose membranes using the complete Bio-Rad Trans-Blot Turbo Transfer System (Bio-Rad, California). […] The membranes were incubated in an appropriate primary antibody. The primary antibodies used in this study were mouse anti-ORF57 (207.6) monoclonal antibody (Santa Cruz Biotechnology, sc-135746), mouse […]) monoclonal antibody (Novus Biologicals, NB200-167SS), rabbit anti-Hop monoclonal antibody (Abcam, ab126724), mouse anti-Hsp90α/β (F-8) monoclonal antibody (Santa Cruz, sc-13119), anti-CDK4 antibody [EPR4513-32-7] (Abcam, Ab108357), rabbit anti-β-actin [EPR2124] monoclonal antibody (Abcam, Ab213262), and HRP-conjugated anti-GAPDH antibody (EPR6256) (Abcam, ab185059). The membranes were washed three times using TBST and incubated in an appropriate secondary antibody. […]

Data set [4] has as its system KSHV vIRF3. It counts as cell-based.
The test system of data set [5] is HopTPR2A–HSP90CTD PPI. As to the kind of experiment: ELISA-based solid-phase HopTPR2A–HSP90CTD PPI inhibitory assay. It counts as biochemical. Particulars: SAR, Figures 2 and 3; peptide 1 as control.
Data set [6] has as its system Hop. As to the kind of experiment: Pulldown from HeLa cell lysates with resin-supported peptides, Western blot for Hop. It counts as binding. Particulars: incubated overnight with resin-supported peptide, densitometry.
The test system of data set [7] is HSP90. As to the kind of experiment: Pulldown from HeLa cell lysates with resin-supported peptides, Western blot for HSP90. It counts as binding. To be noted: full-length Hop IP experiments. On the technique in general: Immunoblotting shows a protein as a band on a membrane.

Where no end group is shown, it is not given here. [ ]: non-standard residue; d: D form. SulfoLink = iodoacetyl-modified agarose resin; Mpa = O=C(O)CCS

For the substance “CPP-MAAVD (disulfide) [CPP-19, MAAVD containing control tethered to the Arg-8 CPP via disulfide linkage]”, the Cytotoxicity entry in data set [1] is “negligible cytotoxicity”. In data set [2], the “ORF57 expression, dose-dependent analysis” value is recorded as “no effect on either”. In data set [3], the “Levels of HSP90 client CDK4” value is on record as “same effect was not seen”. Besides, the “vIRF3 expression, dose-dependent analysis” value in data set [4] is given as “no effect on either”.
Regarding LWWPD [Peptide 12], the “HopTPR2A–HSP90CTD PPI disruption activity (in words)” value in data set [5] is “weak to moderate activity”.
Regarding “IP-5: weakly active peptide 5 immobilized on SulfoLink resin, control (SulfoLink-[Mpa]MEDVE)”, the “Hop in elution after pulldown” value in data set [6] was “only trace amounts of Hop”. In addition, in data set [7], the “HSP90 in elution after pulldown” value is reported as “not observed”.
